Test results: the NIST ThermoML archive (doi:10.1021/je600557n)

Tests used:
[1] = molar heat capacity at constant pressure; xn = mol fraction of the nth substance listed; conditions: 101 kPa, Liquid, Small sample (50 mg) DSC
[2] = xn = mol fraction of the nth substance listed; conditions: 101 kPa, Liquid
[3] = refractive index (Na D-line) (dimensionless); xn = mol fraction of the nth substance listed; conditions: 101 kPa, Liquid, Standard Abbe refractometry

CC1CCCO1 (centres undefined) [2-methyltetrahydrofuran] + C[S+](C)[O-]
Conditions | mass density, [2] [kg/m3] | molar heat capacity at constant pressure, [1] [J/K/mol] | refractive index, [3] | viscosity, [2] [mPa·s]
293.15 K, x2 = 0.0675 | 865.78 | – | 1.4121 | 0.537
293.15 K, x2 = 0.1033 | – | 155.2 | – | –
293.15 K, x2 = 0.1168 | 875.28 | – | 1.4152 | 0.561
293.15 K, x2 = 0.1368 | – | 155.1 | – | –
293.15 K, x2 = 0.2208 | 896.02 | – | 1.4215 | 0.631
293.15 K, x2 = 0.2714 | – | 155 | – | –
293.15 K, x2 = 0.3228 | 917.54 | – | 1.4282 | 0.719
293.15 K, x2 = 0.3775 | – | 154.6 | – | –
293.15 K, x2 = 0.4044 | 935.66 | – | 1.4336 | 0.78
293.15 K, x2 = 0.4694 | 950.78 | – | 1.438 | 0.876
293.15 K, x2 = 0.4881 | – | 154.2 | – | –
293.15 K, x2 = 0.5058 | 959.5 | – | 1.4407 | 0.926
293.15 K, x2 = 0.5877 | – | 153.8 | – | –
293.15 K, x2 = 0.5888 | 980.16 | – | 1.4468 | 1.047
293.15 K, x2 = 0.6274 | – | 153.6 | – | –
293.15 K, x2 = 0.6692 | 1001.25 | – | 1.4527 | 1.194
293.15 K, x2 = 0.6833 | – | 153.2 | – | –
293.15 K, x2 = 0.7448 | 1022.04 | – | 1.4589 | 1.354
293.15 K, x2 = 0.7593 | – | 152.9 | – | –
293.15 K, x2 = 0.8192 | 1043.57 | – | 1.4651 | 1.55
293.15 K, x2 = 0.8559 | – | 152 | – | –
293.15 K, x2 = 0.9343 | – | 151.2 | – | –
293.15 K, x2 = 0.9523 | 1084.75 | – | 1.477 | 2.004
293.15 K, x2 = 0.9687 | – | 150.8 | – | –
303.15 K, x2 = 0.0609 | 854.29 | – | 1.4055 | 0.468
303.15 K, x2 = 0.1033 | – | 158.4 | – | –
303.15 K, x2 = 0.1281 | 867.26 | – | 1.4096 | 0.501
303.15 K, x2 = 0.1368 | – | 158.3 | – | –
303.15 K, x2 = 0.2161 | 884.84 | – | 1.4152 | 0.554
303.15 K, x2 = 0.2714 | – | 157.7 | – | –
303.15 K, x2 = 0.3184 | 906.38 | – | 1.4216 | 0.628
303.15 K, x2 = 0.3775 | – | 157.3 | – | –
303.15 K, x2 = 0.4156 | 928.04 | – | 1.4281 | 0.71
303.15 K, x2 = 0.4881 | – | 156.7 | – | –
303.15 K, x2 = 0.5105 | 950.44 | – | 1.4349 | 0.807
303.15 K, x2 = 0.5491 | 959.9 | – | 1.4378 | 0.852
303.15 K, x2 = 0.584 | 968.73 | – | 1.4405 | 0.896
303.15 K, x2 = 0.5877 | – | 156.1 | – | –
303.15 K, x2 = 0.6274 | – | 155.8 | – | –
303.15 K, x2 = 0.6652 | 989.97 | – | 1.4469 | 1.013
303.15 K, x2 = 0.6833 | – | 155.4 | – | –
303.15 K, x2 = 0.7439 | 1011.62 | – | 1.4535 | 1.149
303.15 K, x2 = 0.7593 | – | 154.7 | – | –
303.15 K, x2 = 0.8161 | 1032.51 | – | 1.4595 | 1.286
303.15 K, x2 = 0.8558 | – | 153.8 | – | –
303.15 K, x2 = 0.9343 | – | 152.9 | – | –
303.15 K, x2 = 0.9427 | 1071.55 | – | 1.4703 | 1.623
303.15 K, x2 = 0.9687 | – | 152.7 | – | –
313.15 K, x2 = 0.0723 | 846.13 | – | 1.4004 | 0.428
313.15 K, x2 = 0.1033 | – | 161.5 | – | –
313.15 K, x2 = 0.1209 | 855.52 | – | 1.4034 | 0.452
313.15 K, x2 = 0.1368 | – | 161.3 | – | –
313.15 K, x2 = 0.2135 | 874.07 | – | 1.4093 | 0.497
313.15 K, x2 = 0.2714 | – | 160.6 | – | –
313.15 K, x2 = 0.3285 | 898.41 | – | 1.4171 | 0.566
313.15 K, x2 = 0.3775 | – | 159.9 | – | –
313.15 K, x2 = 0.4268 | 920.49 | – | 1.4237 | 0.64
313.15 K, x2 = 0.4881 | – | 158.9 | – | –
313.15 K, x2 = 0.502 | 938.3 | – | 1.4291 | 0.706
313.15 K, x2 = 0.5525 | 950.72 | – | 1.433 | 0.751
313.15 K, x2 = 0.5877 | – | 158.2 | – | –
313.15 K, x2 = 0.5881 | 959.69 | – | 1.4357 | 0.786
313.15 K, x2 = 0.6274 | – | 158 | – | –
313.15 K, x2 = 0.6613 | 978.86 | – | 1.4415 | 0.872
313.15 K, x2 = 0.6833 | – | 157.4 | – | –
313.15 K, x2 = 0.7441 | 1001.63 | – | 1.4484 | 0.997
313.15 K, x2 = 0.7593 | – | 156.7 | – | –
313.15 K, x2 = 0.8488 | 1032.24 | – | 1.4572 | 1.162
313.15 K, x2 = 0.8558 | – | 155.7 | – | –
313.15 K, x2 = 0.9343 | – | 154.5 | – | –
313.15 K, x2 = 0.9474 | 1063.08 | – | 1.4666 | 1.374
313.15 K, x2 = 0.9687 | – | 154.1 | – | –
